pIC50: −log10 of the molar value. Counter-ions that a name gives are not always drawn.
Assays:
[1] = Pharmacokinetic properties of test compound in mice (oral); assay type: in vivo, C57BL male mice; details: mouse; for oral plasma systemic exposure (AUC0-inf), in words / pharmacokinetic properties in rodent mice, in words: oral
Description: In this study, C57BL male mice were selected as the test animals, and the LC/MS/MS method was used to quantitatively determine the drug concentration in the plasma of the test compound and the reference compound administered orally to evaluate the pharmacokinetic profile of the test compound in mice.
[…] (C57) mice (male, 20-30 g, 7-10 weeks old, from Beijing Vital River or Shanghai SLAC).
A clear solution or suspension of the test compound was administrated to C57 mice (fasted overnight) by oral gavage. Blood was collected from jugular vein at pre-dose and 0.5, 1, 2, 4, 6, 8, 24 hours post-dose, the collected blood samples were placed in an anticoagulant tube (Jiangsu Kangjian Medical Co., Ltd.) supplemented with EDTA-K2, and the mixture was vortexed and centrifuged at 13000 rpm for 10 minutes. The LC-MS/MS method was used to determine the plasma concentration, and the relevant pharmacokinetic parameters were calculated using the non-compartmental model linear logarithmic trapezoidal method by WinNonlin™ Version 6.3 (Pharsight, Mountain View, Calif.).

[2] = tested on: DOHH2; experiment: Anti-proliferative effect in lymphoma cell line DOHH2 (CellTiter-Glo); assay type: cell-based; details: Homo sapiens, DOHH-2, 96 h; incubate with the compound for 4 days
Description: (§1) Experiment object: In this experiment, the inhibitory effects of the test compounds on cell proliferation in the diffuse large B-cell lymphoma cell lines OCI-LY10 and DOHH2, and the mantle cell lymphoma cell line Mino were tested. The tumor cell lines were cultured in an incubator at 37° C. and 5% CO2 under the above-mentioned culture conditions. The cells were passaged regularly, and cells in the logarithmic growth phase were taken for plating. (3). 90 μL of cell suspension was added to each well of the culture plate as shown in the table above, and cell-free culture solution was added to the blank control well. (4). The culture plates were incubated overnight at 37° C., 5% CO2, and 100% relative humidity in an incubator. A 400× compound working solution was prepared. The compound was gradually diluted with DMSO from the highest concentration to the lowest concentration. […] The following steps followed the instructions of Promega CellTiter-Glo Luminescence Cell Viability Detection Kit (Promega-G7573). […] The luminous signal was detected on the 2104 EnVision plate reader. […] The inhibition rate of different concentrations of the compound was calculated in Excel, and then GraphPad Prism software was used to draw the inhibition curve and calculate the relevant parameters, including the minimum inhibition rate, the maximum inhibition rate and IC50.

[3] = tested on: OCI-LY10; experiment: Anti-proliferative effect in lymphoma cell line OCI-LY10 (CellTiter-Glo); assay type: cell-based; details: Homo sapiens, OCI-Ly10, 120 h; incubate with the compound for 5 days
Description: Experiment object: In this experiment, the inhibitory effects of the test compounds on cell proliferation in the diffuse large B-cell lymphoma cell lines OCI-LY10 and DOHH2, and the mantle cell lymphoma cell line Mino were tested.
The tumor cell lines were cultured in an incubator at 37° C. and 5% CO2 under the above-mentioned culture conditions. The cells were passaged regularly, and cells in the logarithmic growth phase were taken for plating.
(3). 90 μL of cell suspension was added to each well of the culture plate as shown in the table above, and cell-free culture solution was added to the blank control well.
(4). The culture plates were incubated overnight at 37° C., 5% CO2, and 100% relative humidity in an incubator.
A 400× compound working solution was prepared. The compound was gradually diluted with DMSO from the highest concentration to the lowest concentration. The compound was freshly formulated when use every time.
(1). Formulation of 10× compound working solution: 76 μL of cell culture solution was added to a 96-well plate with a V-shaped bottom, and 4 μL of the compound from a 200× compound solution plate was pipetted and added to the cell culture solution in the 96-well plate. 4 μL of DMSO was added to the vehicle control and blank control. After adding the compound or DMSO, a multi-channel pipette was used for mixing well. 78 μL of cell culture solution was added to a 96-well plate with a V-shaped bottom, and 2 μL of the compound from the 400× compound storage solution was pipetted and added to the cell culture solution in the 96-well plate. 2 μL of DMSO was added to the vehicle control and blank control. After adding the compound or DMSO, a multi-channel pipette was used for mixing well.
(2). Dosing: 10 μL of the 10× compound working solution was taken and added to the cell culture plate. 10 μL mixture of DMSO and cell culture solution was added to the vehicle control and blank control.
(3). The 96-well cell plates were placed back into the incubator to culture OCI-LY10 (5 times dilution, incubate with the compound for 5 days), DOHH2 (3 times dilution, incubate with the compound for 4 days), Mino (3 times dilution, incubate with the compound for 4 days).
The following steps followed the instructions of Promega CellTiter-Glo Luminescence Cell Viability Detection Kit (Promega-G7573).
(6). 50 μL (equal to half the volume of cell culture solution in each well) of CellTiter-Glo working solution was added into each well. The cell plates were wrapped with aluminum foil to protect the cell plate from light.
(9). The luminous signal was detected on the 2104 EnVision plate reader.
The following formula was used to calculate the inhibition rate (IR) of the test compound: IR (%)=(RLU of vehicle control−RLU of compound)/(RLU vehicle control−RLU blank control)*100%. […]

[4] = tested on: human lymphoma OCI-LY10 cells; experiment: In vivo pharmacodynamic study in subcutaneous xenograft tumor CB-17 SCID model of human lymphoma OCI-LY10 cells; parameters: species or system CB-17 SCID mouse
Description: Cells culture: Human lymphoma OCI-LY10 cells (National Cancer Institute) were cultured in a monolayer method in vitro (culture conditions: RPMI-1640 medium with 10% fetal bovine serum, 100 U/mL penicillin and 100 μg/mL streptomycin; 37° C., 5% CO2 incubator). Pancreatin-EDTA was used twice a week for conventional digestion and passage. When a cell saturation of 80%-90% and the required cell number were achieved, the cells were collected, counted and seeded. Animal: CB-17 SCID mouse, female, 6-8 weeks old, weighing 18-22 grams. 0.2 mL (10×10^6 cells) of OCI-LY10 cells (with matrigel in a volume ratio of 1:1) were subcutaneously inoculated on the right back of each mouse. The grouping and administration were started when the average tumor volume reached about 139 mm^3. One dosing cycle was seven days, and the compound was administered once a day with an interval of 24 hours. The test compound was administered orally for a total of four cycles. The dose of the test compound WX001 was 60 mg/kg. The tumor volume was measured twice a week with a two-dimensional caliper, expressed in cubic millimeters, and calculated by the following formula: V=0.5a×b^2, in which a and b were the long diameter and short diameter of the tumor, respectively. The anti-tumor efficacy was determined by dividing the average increase of tumor volume of animals treated with the compound by that of untreated animals. TGI: Tumor Growth Inhibition. TGI (%)=[1−(average tumor volume at the end of administration in a treatment group−average tumor volume at the beginning of administration in this treatment group)/(average tumor volume at the end of administration in the solvent control group−average tumor volume at the beginning of administration in the solvent control group)]×100%.

[5] = tested on: Mino; experiment: Anti-proliferative effect in lymphoma cell line Mino (CellTiter-Glo); assay type: cell-based; details: Homo sapiens, 96 h, incubate with the compound for 4 days
Description: as §1

[6] = 60 mg/kg oral once a day, Day 27

Compound	oral plasma systemic exposure (AUC0-inf), in words [1]	pharmacokinetic properties in rodent mice, in words [1]	Area under the concentration-time curve (0-inf) ([1]; oral 10 mg/kg, plasma) [µM·h]	pIC50 [3]	further results
CN(C)CCOc1ccc2cc3occ(C4CCC(=O)NC4=O)c3cc2c1 (stereo not drawn) [Hydrochloride salt of WX022]	higher	better pharmacokinetic properties	7.42	–	–
O=C1CCC(c2coc3cc4ccccc4cc23)C(=O)N1 (stereo not drawn) [WX001]	–	–	–	7.55	pIC50 [2]: 7.20; Tumor volume (Day 0) ([4]; 60 mg/kg oral once a day, Day 0, start of administration): 139 mm^3; TGI (Day 27) [4, 6]: 105.5%; Tumor volume (Day 27) [4, 6]: 87 mm^3; tumor-shrinking effect, in words ([4]; human lymphoma OCI-LY10 model): significant tumor-shrinking effect; pIC50 [5]: 7.14
O=C1CCC(c2coc3cc4c(cc23)OCO4)C(=O)N1 (stereo not drawn) [WX002]	–	–	–	7.07	–
O=C1CCC(c2coc3cc4c(cc23)OCCN4)C(=O)N1 (stereo not drawn) [WX003]	–	–	–	7.08	–
Cc1nc2cc3occ(C4CCC(=O)NC4=O)c3cc2o1 (stereo not drawn) [WX005]	–	–	–	8.22	–
O=C1CCC(c2coc3cc4ccc(OCCN5CCOCC5)cc4cc23)C(=O)N1 (stereo not drawn) [WX015]	higher	better pharmacokinetic properties	13.29	–	Peak concentration ([1]; oral 10 mg/kg, plasma): 5.14 µM; Time to peak ([1]; oral 10 mg/kg, plasma): 0.50 h

Reference: patent publication US11319330B2, “Tricyclic furan-substituted piperidinedione compound” (MEDSHINE DISCOVERY INC., priority 2018, dated 2022)
